Laboratory results reported in patent US20200329707A1, “PYRAZOLAMIDE COMPOUND HAVING INSECTICIDAL ACTIVITY AND USE THEREOF” (JIANGSU FLAG CHEMICAL INDUSTRY CO., LTD., priority 2017, published 2020).

Tests used:
Type in all cases: in vivo
Spodoptera litura = test: Insecticidal effect on Spodoptera litura, feeding with immersed cabbage leaf discs; settings: 40 ppm reagent solution; 3rd instar larvae; deaths in 5 days
Procedure: (§1) The test reagents were all individually dissolved in a mixed solvent of acetone:[…] (1:1) to give a 1000 mg/L solution. 1% Tween-80 was added as an emulsifier to each solution. These solutions were then diluted with 1% Tween-20 solution in water to give desired concentrations of test solutions. An aqueous solution containing 1% Tween-20 was used as a control.
Third instar larvae of Spodoptera litura were used, and the insecticidal effect test was carried out by feeding with leaves immersed with various compounds. The cabbage leaves that had not been exposed to insecticides were cut into leaf discs of about 40 square-mm with scissors. The leaf discs were immersed in each compound solution for 30 s. Then the leaf discs were placed on absorbent paper and air-dried until there were no obvious water stains on the leaf discs. The leaf discs soaked with the reagents were placed in a petri dish (7 cm), each petri dish having 3 leaf discs. The 3rd instar larvae of Spodoptera litura raised on the indoor cabbage plants were gently picked up with a pen brush and placed on the leaf discs in the petri dish, each petri dish having 10-15 insects. After the insects were inoculated, the petri dish was covered, and placed in an insect-cultivating chamber at 25° C. with a 16-h-light/8-h-dark photoperiod. The number of deaths in 5 days was investigated, and the mortality was calculated.

Frankliniella intonsa = test: Insecticidal effect on Frankliniella intonsa, treated filter paper in petri dish; settings: 60 ppm reagent solution; nymphs; 72 hrs
Procedure: as §1
On the bottom of a glass petri dish with a diameter of 6 cm, a piece of filter paper with the same diameter was laid. 1 mL of the reagent solution was drawn by a pipette and uniformly dripped on the filter paper. After the acetone was volatilized, Nymphs of Frankliniella intonsa were transferred from Bombax ceiba with a brush pen to the filter paper in the petri dish. After 0.5-1 h when the insect body was fully covered with the reagent, 3 cm-long petals of Bombax ceiba were placed and the Petri dish were covered. 3 replicates were set for each treatment. After the insects were inoculated, the petri dish was placed in an insect-cultivating chamber at 25° C. with a 16-h-light/8-h-dark photoperiod. 72 hrs after the insects were inoculated, the deaths of Frankliniella intonsa were investigated to calculate the mortality.

Helicoverpa armigera = test: Insecticidal effect on Helicoverpa armigera, immersed cabbage leaf discs in 24-well plate; settings: foliar, 72 h, read-out: Insecticidal activity (%) on Helicoverpa armigera (mortality %)
Procedure: as §1
Third instar larvae of Helicoverpa armigera were used, and the insecticidal effect test was carried out by feeding with leaves immersed with various compounds. The cabbage leaves that had not been exposed to insecticides were punched into leaf discs having a diameter of […]. The leaf discs were immersed in each compound solution for 30 s. Then the leaf discs were placed on absorbent paper and air-dried until there were no obvious water stains on the leaf discs. A washed 24-well plate was prepared, and about 1 ml of water agar medium was fed to each well. After solidification, the treated leaf discs were placed on the medium in the 24-well plate, and then 1 3rd-instar larva of Helicoverpa armigera was inoculated into each well. The 24-well plate was covered after inoculation, placed in an insect cultivating chamber at 25° C. with a 16-h-light/8-h-dark photoperiod. The number of deaths in 3 days was investigated, and the mortality was calculated.

SMILES | control effect on Spodoptera litura (Spodoptera litura) | control effect on Frankliniella intonsa (Frankliniella intonsa) | mortality at 5 ppm (Helicoverpa armigera) | mortality at 15 ppm (Helicoverpa armigera)
Cc1cc(Cl)cc(C(=O)NC(C)(C)C(N)=O)c1NC(=O)c1cc(Br)nn1-c1ncccc1Cl [Compound 1.1, N-(2-N-((1-amino-2-methyl-1-acylpropan-2-yl)-formyl)-4-chloro-6-methylphenyl)-1-(3-chloropyridin-2-yl)-3-bromo-1H-pyrazol-5-carboxamide] | more than 80% | more than 80% | 75% | 87.5%
CC(C)(NC(=O)c1cc(Cl)cc(Cl)c1NC(=O)c1cc(Cl)nn1-c1ncccc1Cl)C(N)=O [KC1] |  |  | 10% | 46.7%
CC(C)(NC(=O)c1cc(Cl)cc(Cl)c1NC(=O)c1cc(Br)nn1-c1ncccc1Cl)C(N)=O [KC2] |  |  | 16.7% | 37.5%
